The target in experiment [1] is mutant HIV reverse transcriptases (Human immunodeficiency virus type 1, UniProt P12497, Y768C, cells depend on it). In kind it is cell-based.
For experiment [2], the target named is mutant HIV reverse transcriptases (Human immunodeficiency virus type 1, UniProt P12497, Y775L, cells depend on it). In kind it is cell-based.
The next experiment concerns wild type HIV-1. As to the kind of experiment: microbe, parasite or virus in culture. In kind it is cell-based, human immunodeficiency virus type 1 (HIV-1).
Experiment [3] has as its target T1, wild-type HIV reverse transcriptase (Human immunodeficiency virus type 1 group M subtype B, UniProt P04585).
T1 construct: wild-type and four mutant HIV reverse transcriptases
Put plainly: Activity on wild type reverse transcriptase (Table 1 IC50 WT). In kind it is biochemical. Here is the method: Using similar methods as described above, 2-[5-bromo-4-(4-cyclopropylnaphthalen-1-yl)-4H-[1,2,4]triazol-3-ylsulfanyl]-N-(2-methyl-4-sulfamoylphenyeacetamide and 2-[5-bromo-4-(4-ethylnaphthalen-1-yl)-4H-[1,2,4]triazol-3-ylsulfanyl]-N-(2-chloro-4-sulfamoylphenyl)-acetamide were synthesized, as were the N-4-carbamyl analog, 2-[5-bromo-4-(4-ethyl-naphthalen-1-yl)-4H-[1,2,4]triazol-3-ylsulfanyl]-N-(2-chloro-4-carbamoylphenyl)-acetamide and the N-4-carboxyl analog. Each of the compounds was tested against a panel of mutant HIV reverse transcriptases, including 20 of the 22 of the mutants that are found in about 2% or more of the patient samples that are resistant to the most widely used non-nucleoside HIV-RT inhibitor efavirenz ((4S)-6-chloro-4-(cyclopropylethynyl)-1,4-dihydro-4-(trifluoromethyl)-2H-3,1-benzoxazin-2-one). […] In most cases both criteria were met. […] […].
Compounds of the invention were tested against the wild-type and four mutant HIV reverse transcriptases. The results are listed in Table 1 as EC50 (nM) and IC50 (nM). In the Table, A represents <50 nM, B is between 50 and 100 nM, and C is >100 nM. ND is not determined.

[4] abbreviates: Human immunodeficiency virus 1, Hela-JC53, read-out: EC50 WT.
Setting [5] is: read-out: EC50 WT, wild-type (WT) HIV-1.
The mark [6] stands for this setting: read-out: IC50 WT RT, wild-type (WT) RT.

Where two headings read alike, the source gives them in different places. Where only a bound is given, the exact number is not on record here.

The EC50 is the midpoint of the concentration-response curve. Usually IC50 stands for the midpoint of a concentration-inhibition curve. As to `CCOC(=O)C(C)NS(=O)(=O)c1ccc(NC(=O)CSc2nnc(C(F)F)n2-c2ccc(C)c3c2CCCC3)c(Cl)c1` (centres unmarked) [compound 56], the EC50 in experiment [1] was less than 0.05 µM; in experiment [2], more than 0.1 µM; in the experiment with wild type HIV-1 (setting [4]), less than 0.05 µM. The molecule also came in with an IC50 in experiment [3] of less than 0.05 µM.
`Cc1ccc(-n2c(SCC(=O)Nc3ccc(S(=O)(=O)NCCN4CCOCC4)cc3Cl)nnc2C(F)F)c2c1CCCC2` [compound 57]: the results for the EC50 (in experiment [1]; in experiment [2]; in the experiment with wild type HIV-1 (setting [4])) were less than 0.05 µM, 0.05 to 0.1 µM and less than 0.05 µM, respectively. The molecule also displayed a concentration for half-maximal inhibition (IC50) in experiment [3] of less than 0.05 µM.
In the case of `Cc1ccc(-n2c(SCC(=O)Nc3ccc(S(=O)(=O)NCCC(=O)O)cc3Cl)nnc2C(F)F)c2c1CCCC2` [compound 58], the concentration for a half-maximal effect (EC50) is more than 0.1 µM in experiment [1], more than 0.1 µM in experiment [2] and 0.05 to 0.1 µM in the experiment on wild type HIV-1 (setting [4]). Further, the IC50 in experiment [3] is less than 0.05 µM.
With `Cc1ccc(-n2c(SCC(=O)Nc3ccc(S(=O)(=O)NC(C)C(=O)O)cc3Cl)nnc2C(F)F)c2c1CCCC2` (centres unmarked) [compound 59], the EC50 (in experiment [1]; in experiment [2]; with wild type HIV-1 (setting [4])) was more than 0.1 µM each time. Further, the IC50 in experiment [3] is less than 0.05 µM.
For `Cc1ccc(-n2c(SCC(=O)Nc3ccc(S(=O)(=O)NC(C(=O)O)C(C)C)cc3Cl)nnc2C(F)F)c2c1CCCC2` (centres unmarked) [compound 60], the EC50 (in experiment [1]; in experiment [2]; in the experiment on wild type HIV-1 (setting [4])) was more than 0.1 µM throughout. Further, the IC50 in experiment [3] was less than 0.05 µM.
As for `NS(=O)(=O)c1ccc(NC(=O)CSc2nnc(Br)n2-c2ccc(F)c3ccccc23)c(Cl)c1` [compound 61], the EC50 (in experiment [1]; in experiment [2]; in the experiment on wild type HIV-1 (setting [4])) was less than 0.05 µM throughout. Also, in experiment [3], the IC50 is less than 0.05 µM.
With `Cc1cc(S(N)(=O)=O)ccc1NC(=O)CSc1nnc(Br)n1-c1ccc(F)c2ccccc12` [compound 62], the results for the EC50 (in experiment [1]; in experiment [2]; in the experiment on wild type HIV-1 (setting [4])) were less than 0.05 µM, more than 0.1 µM and less than 0.05 µM, respectively. This molecule also displayed an IC50 in experiment [3] of less than 0.05 µM.
Take `Cc1ccc2c(C)cc(C)c(-n3c(SCC(=O)Nc4ccc(S(N)(=O)=O)cc4Cl)nnc3C(F)F)c2n1` [compound 63]: the EC50 (in experiment [1]; in experiment [2]; with wild type HIV-1 (setting [4])) was less than 0.05 µM in each case. For the same molecule, in experiment [3], the IC50 is less than 0.05 µM.
Consider `Cc1ccc2c(C)cc(C)c(-n3c(SCC(=O)Nc4ccc(S(N)(=O)=O)cc4C)nnc3C(F)F)c2n1` [compound 64], for which the EC50 (in experiment [1]; in experiment [2]; in the experiment on wild type HIV-1 (setting [4])) was less than 0.05 µM throughout. In experiment [3], the IC50 was less than 0.05 µM.
For `Cc1cc(S(N)(=O)=O)ccc1NC(=O)CSc1nnc(CF)n1-c1ccc(C)c2c1CCCC2` [compound 65], the EC50 in experiment [1] was less than 0.05 µM; in experiment [2], 0.05 to 0.1 µM; with wild type HIV-1 (setting [4]) it was less than 0.05 µM. Moreover, the IC50 in experiment [3] is less than 0.05 µM.
In the case of `NS(=O)(=O)c1ccc(NC(=O)CSc2nncn2-c2ccc(C3CC3)c3ccccc23)c(Cl)c1` [compound 66], the EC50 was less than 0.05 µM in experiment [1], more than 0.1 µM in experiment [2] and less than 0.05 µM in the experiment with wild type HIV-1 (setting [4]). The IC50 in experiment [3] is less than 0.05 µM.
As to `CCc1ccc(-n2c(CF)nnc2SCC(=O)Nc2ccc(S(N)(=O)=O)cc2Cl)c2c1CCCC2` [compound 67], the half-maximal effective concentration (EC50) (in experiment [1]; in experiment [2]; in the experiment with wild type HIV-1 (setting [4])) was less than 0.05 µM each time. In experiment [3], this molecule gave an IC50 of less than 0.05 µM.
In the case of `NS(=O)(=O)c1ccc(NC(=O)CSc2nnc(C(F)F)n2-c2ccc(C3CCCC3)c3ccccc23)c(Cl)c1` [compound 68], the EC50 in experiment [1] was less than 0.05 µM; in experiment [2] it was more than 0.1 µM; with wild type HIV-1 (setting [4]) it was less than 0.05 µM. In experiment [3], this molecule displayed an IC50 of less than 0.05 µM.
As for `NS(=O)(=O)c1ccc(NC(=O)CSc2nnc(C(F)F)n2-c2ccc(C3CCC3)c3ccccc23)c(Cl)c1` [compound 69], the concentration giving a half-maximal response (EC50) (in experiment [1]; in experiment [2]; in the experiment on wild type HIV-1 (setting [4])) was less than 0.05 µM each time. The molecule further had an IC50 in experiment [3] of less than 0.05 µM.
On to `CCc1ccc(-n2c(I)nnc2SCC(=O)Nc2ccc(S(N)(=O)=O)cc2Cl)c2ccccc12` [compound 70], for which the EC50 (in experiment [1]; in experiment [2]; in the experiment with wild type HIV-1 (setting [4])) was less than 0.05 µM throughout. Further, in experiment [3], the half-inhibitory concentration (IC50) was less than 0.05 µM.
`CC(C)c1ccc(-n2c(SCC(=O)Nc3ccc(S(N)(=O)=O)cc3Cl)nnc2C(F)F)c2ccccc12` [compound 71]: the EC50 (in experiment [1]; in experiment [2]; with wild type HIV-1 (setting [4])) was less than 0.05 µM throughout. Besides, the IC50 in experiment [3] was less than 0.05 µM.
Take `COc1ccc2c(C3CC3)ccc(-n3c(Br)nnc3SCC(=O)Nc3ccc(S(N)(=O)=O)cc3Cl)c2c1` [compound 72]: the EC50 (in experiment [1]; in experiment [2]; in the experiment on wild type HIV-1 (setting [4])) was less than 0.05 µM throughout. Also, the IC50 in experiment [3] is less than 0.05 µM.
As for `CCc1ccc(-n2c(Br)nnc2SCC(=O)Nc2ccc(S(N)(=O)=O)cc2Br)c2ccccc12` [compound 73], the EC50 (in experiment [1]; in experiment [2]; in the experiment on wild type HIV-1 (setting [4])) was less than 0.05 µM throughout. In experiment [3], the IC50 was less than 0.05 µM.
`COc1ccc2c(C)ccc(-n3c(Br)nnc3SCC(=O)Nc3ccc(S(N)(=O)=O)cc3Br)c2c1` [compound 74]: the 50% effective concentration (EC50) (in experiment [1]; in experiment [2]; with wild type HIV-1 (setting [4])) was less than 0.05 µM each time. Moreover, the IC50 in experiment [3] was less than 0.05 µM.
Take `NS(=O)(=O)c1ccc(NC(=O)CSc2nnc(Br)n2-c2ccc(C3CC3)cc2Cl)c(Cl)c1` [compound 75]: the EC50 (in experiment [1]; in experiment [2]; in the experiment on wild type HIV-1 (setting [4])) was less than 0.05 µM in each case. In experiment [3], this molecule gave an IC50 of less than 0.05 µM.
As to `Cc1cc(C)c2ccccc2c1-n1c(SCC(=O)Nc2ccc(S(N)(=O)=O)cc2Cl)nnc1C(F)(F)F` [compound 83], the EC50 (in experiment [1]; in experiment [2]; with wild type HIV-1 (setting [4])) was less than 0.05 µM in each case. This molecule showed an IC50 in experiment [3] of less than 0.05 µM.
With `Cc1cc(C)c2ccccc2c1-n1c(SCC(=O)Nc2ccc(S(N)(=O)=O)cc2Cl)nnc1C(F)(F)F` [compound 84], the EC50 (in experiment [1]; in experiment [2]; in the experiment on wild type HIV-1 (setting [5])) was less than 0.05 µM in each case. Further, the half-inhibitory concentration (IC50) in experiment [3] (setting [6]) was less than 0.05 µM.
In the case of `Cc1cc(S(N)(=O)=O)ccc1NC(=O)CSc1nnc(Br)n1-c1c(Cl)cc(C2CCC2)c2ccccc12` [compound 92], the EC50 (in experiment [1]; in experiment [2]; with wild type HIV-1 (setting [4])) was less than 0.05 µM in each case. The IC50 in experiment [3] was less than 0.05 µM.
In the case of `CCc1ccc(-n2c(Br)nnc2SCC(=O)Nc2ccc(C(=O)NCC(=O)OC)cc2Cl)c2ccccc12` [compound 98], the EC50 (in experiment [1]; in experiment [2]; in the experiment with wild type HIV-1 (setting [4])) was less than 0.05 µM in each case. For the same molecule, in experiment [3], the IC50 was less than 0.05 µM.
`NS(=O)(=O)c1ccc(NC(=O)CSc2nnc(C(F)F)n2-c2ccc(C3CCCC3)c3ccccc23)c(Cl)c1` [compound 99]: the EC50 in experiment [1] is less than 0.05 µM; in experiment [2], more than 0.1 µM; with wild type HIV-1 (setting [5]), less than 0.05 µM. In addition, the IC50 in experiment [3] (setting [6]) was less than 0.05 µM.
On to `NS(=O)(=O)c1ccc(NC(=O)CSc2nnc(C(F)F)n2-c2ccc(C3CCC3)c3ccccc23)c(Cl)c1` [compound 100], for which the EC50 (in experiment [1]; in experiment [2]; with wild type HIV-1 (setting [5])) was less than 0.05 µM throughout. For the same molecule, in experiment [3] (setting [6]), the IC50 is less than 0.05 µM.
With `CCOC(=O)CNC(=O)c1ccc(NC(=O)CSc2nnc(Br)n2-c2ccc(C3CC3)c3ccccc23)c(Cl)c1` [compound 101], the EC50 (in experiment [1]; in experiment [2]; in the experiment on wild type HIV-1 (setting [4])) was less than 0.05 µM throughout. In experiment [3], this molecule displayed a 50% inhibitory concentration (IC50) of less than 0.05 µM.
`CCc1ccc(-n2c(Br)nnc2SCC(=O)Nc2ccc(C(=O)N[C@H](C(=O)OC)C(C)C)cc2Cl)c2ccccc12` [compound 102]: the EC50 (in experiment [1]; in experiment [2]; in the experiment with wild type HIV-1 (setting [4])) was less than 0.05 µM in each case. This molecule also yielded an IC50 in experiment [3] of 0.05 to 0.1 µM.
As to `COC(=O)[C@@H](NC(=O)c1ccc(NC(=O)CSc2nnc(Br)n2-c2ccc(C3CC3)c3ccccc23)c(Cl)c1)C(C)C` [compound 103], the concentration for a half-maximal effect (EC50) in experiment [1] is less than 0.05 µM; in experiment [2], 0.05 to 0.1 µM; in the experiment on wild type HIV-1 (setting [4]) it was less than 0.05 µM. Moreover, the IC50 in experiment [3] was less than 0.05 µM.
With `CCOC(=O)CCNC(=O)c1ccc(NC(=O)CSc2nnc(Br)n2-c2ccc(C3CC3)c3ccccc23)c(Cl)c1` [compound 104], the EC50 (in experiment [1]; in experiment [2]; in the experiment with wild type HIV-1 (setting [4])) was less than 0.05 µM each time. In experiment [3], this molecule registered a 50% inhibitory concentration (IC50) of less than 0.05 µM.
As for `CCc1ccc(-n2c(Br)nnc2SCC(=O)Nc2ccc(C(=O)NCC(=O)O)cc2Cl)c2ccccc12` [compound 105], the EC50 in experiment [1] was less than 0.05 µM; in experiment [2], 0.05 to 0.1 µM; in the experiment on wild type HIV-1 (setting [4]), less than 0.05 µM. The IC50 in experiment [3] is less than 0.05 µM.
On to `CC(C)[C@H](NC(=O)c1ccc(NC(=O)CSc2nnc(Br)n2-c2ccc(C3CC3)c3ccccc23)c(Cl)c1)C(=O)O` [compound 106], for which the half-maximal effective concentration (EC50) in experiment [1] was more than 0.1 µM; in experiment [2], 0.05 to 0.1 µM; with wild type HIV-1 (setting [4]), less than 0.05 µM. For the same molecule, in experiment [3], the IC50 was in the range of 0.05 to 0.1 µM.

Values taken from patent US8946273B2, “S-Triazolyl alpha-mercapto acetanilides as inhibitors of HIV reverse transcriptase” (priority 2011, dated 2015).
